Data taken from patent US11066433B2, “Pentaaza macrocyclic ring complexes possessing oral bioavailability” (Galera Labs, LLC, priority 2015, dated 2021).

Tests used:
[1] = tested on: radiation-induced oral mucositis; conditions: ip, hamster oral mucositis model; cited from earlier work
[2] = tested on: collagen-induced arthritis; conditions: ip, rat collagen-induced arthritis; cited from earlier work
[3] = tested on: lethal total body irradiation; conditions: ip, adult mice; cited from earlier work
[4] = tested on: colon of rats subjected to an experimental model of colitis; conditions: ip injection; cited from earlier work
inflammation = conditions: ip, rat; cited from earlier work
[5] = Oral bioavailability by intraduodenal (id) dosing of minipigs, oil formulations, versus iv parent; format: in vivo, Gottingen minipig; conditions: id 10 mg/kg, 10% by weight formulation, vs iv 1 mg/kg parent, AUC0-24 h
Method: Compounds were screened for oral bioavailability by injecting the formulated prodrugs directly into the duodenum (intraduodenal or id administration) of the minipig test subjects, thus bypassing the acidic environment of the stomach and thereby eliminating potentially misleading oral bioavailability results that could arise from alteration of the test article drug in the acid environment of the stomach.
The studies were conducted at Xenometrics LLC (Stillwell, Kans.) and the id bioavailability was determined using various axial ligand derivative complexes of GC4419, GC4444, GC4403 and GC4401.
Male Gottingen minipigs (4-5 mo old, 9-12 kg weight) were purchased from Marshall BioResources and housed at Xenometrics. […] The distal end was exteriorized with a reusable accessible hub (see surgical details below). During a recovery period of at least 2 weeks the minipigs were handled daily to acclimate them to the test procedures, i.e., id dosing and blood collections. For each experiment, each minipig received a test article drug dissolved or suspended in an excipient vehicle. […] All dosing experiments were conducted in fasted animals. Food was withdrawn from the minipigs 16 hours before dosing. The minipigs had ad libitum access to water. Dosed minipigs were allowed access to food 6 hour after dosing. The test article was administered at a dose of 10 mg/kg parent drug in 0.1 mL/kg vehicle (e.g., 1.5 mL in 15 kg minipig) as a bolus injection (˜1 minute) via the id cannula. The actual amount of total test article drug administered varied with the formula weight of the prodrug. An equal volume of excipient vehicle was used to flush the cannula after the test article was administered. Approximately 6 hours later, corn oil was used to flush the cannula. After approximately 24 hours post-dose, the catheter was flushed with sterile saline solution and capped. At the following time-points 0.25, 0.5, 1, 2, 4, 8, 24 and 48 hour post-injection, 2 mL blood samples were collected by cranial vena cava puncture (4 mL Sodium heparin Vacutainer, 20 g 1.5″ needle) after the skin surface was wiped with ethanol. The minipig was placed in a sling in a recumbent position without anesthesia for the collection of blood samples. The minipigs were never used more than once per 7 days for experimentation. The blood samples were kept on ice until processed for plasma. Blood samples were centrifuged at 1200×g for ten minutes at 4° C. and plasma samples were transferred to 96 well plate tubes, capped and stored at −20° C. until shipment on dry ice to the analytical laboratory used for measuring the concentration of drug in the plasma. The concentration of the parent manganese pentaaza macrocylic ring complex (independent of the composition of the axial ligands) was measured in plasma using a validated HPLC/MS/MS method that is linear between 50 ng/mL and 20,000 ng/mL.
Maisine 35-1 is chemically defined to be the monoglyceride glyceryl monolinoleate (NF) and was supplied by Gattefosse, SAINT-PRIEST Cedex, France. Labrasol (NF) is chemically defined to be caprylocaproyl polyoxyl-8 glycerides NF and was supplied by Gattefosse, SAINT-PRIEST Cedex, France. Labrafil M 1944 CS is chemically defined to be oleoyl polyoxyl-6 glycerides (NF), and is available from Gattefosse, SAINT-PRIEST Cedex, France. The dosing solutions were all prepared using a four place analytical balance by weighing all components of each formulation so that 10% by weight of each formulation contained the test article drug substance and 90% by weight of the oil used for that formulation.
The bioanalytical method which is used to quantitate the parent Mn(II) macrocyclic ring ligand structure in plasma utilizes HPLC with MS/MS detection and monitors the presence of the monocationic [monoformatoMn(pentaazamacrocycle)]+ complex. […]

mouse cancer models = conditions: ip; cited from earlier work
[6] = tested on: VEGFr inhibitor-induced pulmonary disease; conditions: ip, rat model; cited from earlier work
oral mucositis = conditions: iv infusion, head-and-neck cancer patients, chemoradiation therapy; cited from earlier work
Solubility in water = format: physicochemical

Q: What does the source list for `[Cl-].[Cl-].[Mn+2].c1cc2nc(c1)CN[C@@H]1CCCC[C@H]1NCCN[C@@H]1CCCC[C@H]1NC2` [GC4403]?
A: radiation damage [1]: attenuate the radiation damage; joint disease [2]: prevent joint disease; radiation damage [3]: attenuate the radiation damage; injury to the colon [4]: significantly reduce the injury to the colon; inflammation (inflammation): inhibit inflammation; Mini-Pig BioA ([5]; base oil Capmul MCM): 9%

Q: With `[Cl][Mn][Cl].c1cc2nc(c1)CN[C@H]1CCCC[C@@H]1NCCN[C@H]1CCCC[C@@H]1NC2` [GC4419, reference compound] as the compound, how does the “anti-tumor activity of anti-metabolite and anti-mitotic agents” value (mouse cancer models) read?
A: Its value is “increase the anti-tumor activity”.

Q: What about the pulmonary disease [6] of the same compound?
A: The pulmonary disease was “attenuate VEGFr inhibitor-induced pulmonary disease”.

Q: And the oral mucositis (oral mucositis)?
A: Its oral mucositis is “reduce oral mucositis”.

Q: And the “Mini-Pig BioA” value ([5]; base oil Capmul MCM)?
A: The value was 9%.

Q: And the “Mini-Pig BioA” value ([5]; base oil Labrafil M2125 CS)?
A: Its value is 7%.

Q: What about the “Mini-Pig BioA” value ([5]; base oil Maisine 35-1) of the same compound?
A: Its value is 8%.

Q: And the “Mini-Pig BioA” value ([5]; base oil Miglyol 812 N)?
A: The value was 8%.

Q: What about the “Mini-Pig BioA” value ([5]; base oil Peceol) of the same compound?
A: The value was 9%.

Q: What about the solubility in water (Solubility in water) of the same compound?
A: Its solubility in water is “relatively readily soluble in water”.

Q: For “Manganese(II)bis-phenylacetato[(4aS,13aS,17aS,21aS)-1,2,3,4,4a,5,6,12,13,13a,14,15,16,17,17a,18,19,20,21,21a-Eicosahydro-11,7-nitrilo-7H-dibenzo[b,h][1,4,7,10] tetraazacyclo-heptadecine-κN5, κN13, κN18, κN21, κN22]- [GC4718]”, which “Mini-Pig BioA” value ([5]; base oil Capmul MCM) is on record?
A: Its value is 32%.

Q: What about the “Mini-Pig BioA” value ([5]; base oil Maisine 35-1) of the same compound?
A: Its value is 28%.

Q: What does the source list for “Manganese(II)bis-phenylglyoxaloto[(4aS,13aS,17aS,21aS)-1,2,3,4,4a,5,6,12,13,13a,14,15,16,17,17a,18,19,20,21,21a-Eicosahydro-11,7-nitrilo-7H-dibenzo[b,h][1,4,7,10]tetraazacyclohepta-decine-κN5, κN13, κN18, κN21, κN22]- [GC4719]”?
A: Mini-Pig BioA ([5]; base oil Capmul MCM): 25%; Mini-Pig BioA ([5]; base oil Maisine 35-1): 31%; Mini-Pig BioA ([5]; base oil Peceol): 28%

Q: With “Manganese(II)bis-pivaloato[(4aS,13aS,17aS,21aS)-1,2,3,4,4a,5,6,12,13,13a,14,15,16,17,17a,18,19,20,21,21a-Eicosahydro-11,7-nitrilo-7H-dibenzo[b,h][1,4,7,10] tetraazacycloheptadecine-κN5, κN13, κN18, κN21, κN22]- [GC4709]” as the compound, how does the “Mini-Pig BioA” value ([5]; base oil Capmul MCM) read?
A: Its value is 17%.

Q: What about the “Mini-Pig BioA” value ([5]; base oil Labrafil M2125 CS) of the same compound?
A: The value was 22%.

Q: For “Manganese(II)bis-propionato[6R-Methyl(4aR,13aR,17aR,21 aR)-1,2,3,4,4a,5,6,12,13,13a,14,15,16,17,17a,18,19,20,21,21a-Eicosahydro-11,7-nitrilo-7H-dibenzo[b,h][1,4,7,10] tetraazacycloheptadecine-κN5, κN13, κN18, κN21, κN22]- [GC4747]”, which “Mini-Pig BioA” value ([5]; base oil Labrafil M2125 CS) is on record?
A: The value was 20%.

Q: For “Manganese(II)bis-propionato[(4aR,13aR,17aR,21 aR)-1,2,3,4,4a,5,6,12,13,13a,14,15,16,17,17a,18,19,20,21,21a-Eicosahydro-11,7-nitrilo-7H-dibenzo[b,h][1,4,7,10] tetraazacycloheptadecine-κN5, κN13, κN18, κN21, κN22]- [GC4748]”, which “Mini-Pig BioA” value ([5]; base oil Labrafil M2125 CS) is on record?
A: The value was 22%.

Q: What does the source list for “Manganese(II)bis-propionato[(4aS,13aS,17aS,21aS)-1,2,3,4,4a,5,6,12,13,13a,14,15,16,17,17a,18,19,20,21,21a-Eicosahydro-11,7-nitrilo-7H-dibenzo[b,h][1,4,7,10] tetraaza-cycloheptadecine-κN5, κN13, κN18, κN21, κN22]- [GC4711]”?
A: Mini-Pig BioA ([5]; base oil Capmul MCM): 27%; Mini-Pig BioA ([5]; base oil Labrafil M1944 CS): 23%; Mini-Pig BioA ([5]; base oil Labrafil M2125 CS): 44%; Mini-Pig BioA ([5]; base oil Maisine 35-1): 29%; Mini-Pig BioA ([5]; base oil Peceol): 29%

Q: Which “Mini-Pig BioA” value ([5]; base oil Capmul MCM) does the source give for “Manganese(II)bis-rac-Mandelato[(4aS,13aS,17aS,21aS)-1,2,3,4,4a,5,6,12,13,13a,14,15,16,17,17a,18,19,20,21,21a-Eicosahydro-11,7-nitrilo-7H-dibenzo[b,h][1,4,7,10] tetraazacycloheptadecine-κN5, κN13, κN18, κN21, κN22]- [GC4706]” here?
A: Its value is 28%.

Q: What does the source list for “Manganese(II)bis-racemic-2-phenylpropionato[(4aS,13aS,17aS,21 aS)-1,2,3,4,4a,5,6,12,13,13a,14,15,16,17,17a,18,19,20,21,21a-Eicosahydro-11,7-nitrilo-7H-dibenzo[b,h][1,4,7,10] tetraazacycloheptadecine-κN5, κN13, κN18, κN21, κN22]- [GC4705]”?
A: Mini-Pig BioA ([5]; base oil Capmul MCM): 23%; Mini-Pig BioA ([5]; base oil Peceol): 24%

Q: With “Manganese(II)bis-racemic-phenylglycinato[2S, 21 S-Dimethyl(4aR,13aR,17aR,21 aR)-1,2,3,4,4a,5,6,12,13,13a,14,15,16,17,17a,18,19,20,21,21a-Eicosahydro-11,7-nitrilo-7H-dibenzo[b,h][1,4,7,10] tetraazacycloheptadecine-κN5, κN13, κN18, κN21, κN22]- [GC4715]” as the compound, how does the “Mini-Pig BioA” value ([5]; base oil Capmul MCM) read?
A: Its value is 36%.

Q: For “Manganese(II)bis-racemic-phenylglycinato[6R-Methyl(4aR,13aR,17aR,21 aR)-1,2,3,4,4a,5,6,12,13,13a,14,15,16,17,17a,18,19,20,21,21a-Eicosahydro-11,7-nitrilo-7H-dibenzo[b,h][1,4,7,10] tetraazacycloheptadecine-κN5, κN13, κN18, κN21, κN22]- [GC4716]”, which “Mini-Pig BioA” value ([5]; base oil Capmul MCM) is on record?
A: Its value is 34%.

Q: Which “Mini-Pig BioA” value ([5]; base oil Capmul MCM) does the source give for “Manganese(II)bis-racemic-phenylglycinato[(4aR,13aR,17aR,21 aR)-1,2,3,4,4a,5,6,12,13,13a,14,15,16,17,17a,18,19,20,21,21a-Eicosahydro-11,7-nitrilo-7H-dibenzo[b,h][1,4,7,10] tetraazacycloheptadecine-κN5, κN13, κN18, κN21, κN22]- [GC4717]” here?
A: Its value is 26%.

Q: Which results are given for “Manganese(II)bis-racemic-phenylglycinato[(4aS,13aS,17aS,21 aS)-1,2,3,4,4a,5,6,12,13,13a,14,15,16,17,17a,18,19,20,21,21a-Eicosahydro-11,7-nitrilo-7H-dibenzo[b,h][1,4,7,10] tetraazacycloheptadecine-κN5, κN13, κN18, κN21, κN22]- [GC4720]”?
A: Mini-Pig BioA ([5]; base oil Capmul MCM): 33%; Mini-Pig BioA ([5]; base oil Miglyol 812 N): 32%
